From patent US3963706A, “Sulphamoylphenyl-imidazolidinones” (Ed. Geistlich Sohne A.G. fur Chemische Industrie, priority 1972, dated 1976)

Assays:
[1] = system: Grand Mal; experiment: Electro shock test, rat; type: in vivo
Excerpt: (§1) In general, the majority of the available antiepileptic drugs are active against either Grand Mal or Petit Mal epilepsy but not against both forms.
(§2) As mentioned above, the compounds according to the present invention show interesting activity against both Grand Mal and Petit Mal forms of epilepsy. This activity is indicated respectively by the electro shock test and the Cardiazol shock test.

[2] = system: Petit Mal; experiment: Cardiazol shock test; type: in vivo; conditions: species not given
Excerpt: as §1, §2

[3] = system: Grand Mal; experiment: Electro shock test, mouse; type: in vivo
Excerpt: as §1, §2

[4] = type: in vivo; conditions: up to 500 mg/kg
Excerpt: It will be noted that the ratio of ED50 /LD50 for the compounds according to the invention is particularly favourable.

Row | Structure (SMILES) | ED50 [1] [mg/kg] | ED50 [2] [mg/kg] | ED50 [3] [mg/kg] | sedative activity [4]
1 | NS(=O)(=O)c1ccc(N2CN(c3ccccc3)CC2=O)c(F)c1 [Example 2, 1-Phenyl-3-(2-fluoro-4-sulphamoylphenyl)-imidazolidin-4-one] | 10 | 50 | 10 | 
2 | NS(=O)(=O)c1ccc(N2CN(c3ccccc3)CC2=O)c(Cl)c1 [Example 3, 1-Phenyl-3-(2-Chloro-4-sulphamoylphenyl)-imidazolidin-4-one] | 5 | 50 | 1 | virtually no sedative activity
3 | NS(=O)(=O)c1ccc(N2CN(c3ccccc3)CC2=O)c(Br)c1 [Example 5, 1-Phenyl-3-(2-bromo-4-sulphamoylphenyl)imidazolidin-4-one] | 5 to 10 | 50 | 5 | 
4 | NS(=O)(=O)c1ccc(N2C(=O)CN(c3ccccc3)C2=O)c(Cl)c1 [Example 8, 1-Phenyl-3-(2-chloro-4-sulphamoylphenyl)-hydantoin] | 10 | 100 | 5 | 
5 | CC1C(=O)N(c2ccc(S(N)(=O)=O)cc2Cl)CN1c1ccccc1 (stereo not drawn) [Example 18, 5-Methyl-1-phenyl-3-(2-chloro-4-sulphamoylphenyl)-imidazolidin-4-one] | 10 | 50 |  | 
6 | NS(=O)(=O)c1ccc(N2CN(C3CCCCC3)CC2=O)c(Cl)c1 [Example 19, 1-Cyclohexyl-3-(2-chloro-4-sulphamoylphenyl)-imidazolidin-4-one] | 25 | 200 | 10 | 
